Data: US9605026B2, “Hydrogen-bond surrogate peptides and peptidomimetics for p53 reactivation” (New York University, priority 2013, dated 2017)

Experiments:
Type in all cases: cell-based, human
[1] = system: p53; assay: Western blot of total and acetylated[K382] p53 in UMSCC74A cells; settings: UMSCC74A (HPV-negative, p53 wildtype), 10 μM, 24 hours
Description: (§1) FIG. 5A is an schematic illustration showing that CH1 has two distinct target sites. HIF1-α/p300 structures were used as guides to design helix mimetics that target site A and site B on the CH1 domain of p300. […] CH1iA (SEQ ID NO: 7) and CH1iB (SEQ ID NO: 8) were designed to mimic two helices from the C-terminal domain of HIF-1α. The peptides were locked into the helical conformation by the hydrogen bond surrogate method. FIG. 5C is a graph of p53 activity. UMSCC47 (left) and UMSCC74A (right) cells were co-transfected with a p53 Firefly luciferase reporter plasmid and a control Renilla luciferase plasmid. After 24 hours, cells were treated with control (vehicle), CH1iA (10 μM), or CH1iB (10 μM) for 24 hours. Firefly luciferase activity was normalized to Renilla luciferase activity to control for transfection efficiency. Data is normalized to control and presented as mean±SEM. *P<0.05, n=3. FIG. 5D is a western blot showing total and acetylated p53 levels. UMSCC47 (left) and UMSCC74A (right) cells were treated with control (vehicle), CH1iA (10 μM), or CH1iB (10 μM) for 24 hours. Cell lysates were immunoblotted with anti-p53 or anti-acetylated[K382]-p53 antibody. […] UMSCC47 (top panel) and UMSCC74A (bottom panel) cells were treated with control (vehicle), CH1iA (10 μM), or CH1iB (10 μM) for 24 hours. mRNA expression was determined using qPCR with validated TaqMan assays. […]

[2] = system: p53; assay: p53 transcriptional activity (Cignal p53 luciferase reporter) in UMSCC47 cells; settings: 24 hours
Description: FIG. 5A is an schematic illustration showing that CH1 has two distinct target sites. HIF1-α/p300 structures were used as guides to design helix mimetics that target site A and site B on the CH1 domain of p300. […] CH1iA (SEQ ID NO: 7) and CH1iB (SEQ ID NO: 8) were designed to mimic two helices from the C-terminal domain of HIF-1α. The peptides were locked into the helical conformation by the hydrogen bond surrogate method. FIG. 5C is a graph of p53 activity. UMSCC47 (left) and UMSCC74A (right) cells were co-transfected with a p53 Firefly luciferase reporter plasmid and a control Renilla luciferase plasmid. After 24 hours, cells were treated with control (vehicle), CH1iA (10 μM), or CH1iB (10 μM) for 24 hours. Firefly luciferase activity was normalized to Renilla luciferase activity to control for transfection efficiency. Data is normalized to control and presented as mean±SEM. *P<0.05, n=3. FIG. 5D is a western blot showing total and acetylated p53 levels. UMSCC47 (left) and UMSCC74A (right) cells were treated with control (vehicle), CH1iA (10 μM), or CH1iB (10 μM) for 24 hours. Cell lysates were immunoblotted with anti-p53 or anti-acetylated[K382]-p53 antibody. FIG. 5E is a pair of graphs of p300, p53, p21, miR-34a, and miR-200c expression. UMSCC47 (top panel) and UMSCC74A (bottom panel) cells were treated with control (vehicle), CH1iA (10 μM), or CH1iB (10 μM) for 24 hours. mRNA expression was determined using qPCR with validated TaqMan assays. Data is normalized to control cells and presented as mean±SEM. *P<0.01, control vs. CH1iB, n=3. FIG. 5F is a western blot showing HPV16 E6-p300 association. UMSCC47 cells were treated with control (vehicle), CH1iA (10 μM), or CH1iB (10 μM) for 24 hours. Cell lysates were extracted, immunoprecipitated with anti-p300 antibody, and immunoblotted with anti-E6 antibody. Cell lysates were immunoblotted with anti-E6 or anti-p300 antibody for input control. FIG. 5G is a set of graphs of cell proliferation. UMSCC47 (top left panel), UMSCC74A (top right panel), and IMR90 (human normal fibroblasts) (bottom panel) cells were treated with control (vehicle), CH1iA (10 μM), CH1iB (10 μM), cis-platinum (10 μM), CH1iA (10 μM) and cis-platinum (10 μM), or CH1iB (10 μM) and cis-platinum (10 μM) for 24, 48, or 72 hours. Data is normalized to Day 0 and presented as mean±SEM. *P<0.01, control vs. CH1iB or cis-platinum, **P<0.01 CH1iB or cis-platinum vs. CH1iB and cis-platinum, n=6.
FIG. 6A is a western blot showing total and acetylated p53 levels. […] UMSCC47 cells were treated with control (vehicle), CH1iB (10 μM), cis-platinum (10 μM), or CH1iB (10 μM) and cis-platinum (10 μM) for 24 hours. mRNA expression was determined using qPCR with validated TaqMan assays. […]

[3] = system: p300, p53, and p53-regulated genes; assay: qPCR expression of p300, p53, p21, miR-34a, miR-200c in UMSCC74A cells; settings: 10 μM, 24 hours
Description: as §1, with “hours.” for “hours. Firefly luciferase activity was normalized to Renilla luciferase activity to control for transfection efficiency. Data is normalized to control and presented as mean±SEM. *P<0.05, n=3. FIG. 5D is a western blot showing total and acetylated p53 levels. UMSCC47 (left) and UMSCC74A (right) cells were treated with control (vehicle), CH1iA (10 μM), or CH1iB (10 μM) for 24 hours. Cell lysates were immunoblotted with anti-p53 or anti-acetylated[K382]-p53 antibody.”
Cells were extracted for total RNA using the TRIzol® reagent (Invitrogen) or TaqMan PreAmp Cells-to-CT kit (Applied Biosystems). Expression of p300, p53, p21, miR-34a and miR-200c were determined using the Applied Biosystems 7900HT Fast Real-Time PCR System with validated TaqMan gene expression assays (Applied Biosystems). p53, p300, and p21 expression were normalized to GADPH and miR-34a and miR-200c expression were normalized to RNU44 using the ΔΔCt method.

Substance | p53 levels [1] | p53 activity increase ([2]; UMSCC47 (HPV-positive), 10 μM, vs control (vehicle)) [%] | effect of cis-platinum on p53 activity ([2]; UMSCC47, CH1iB 10 μM with cis-platinum 10 μM) | Expression of p300, p53, and p53-regulated genes [3] | p53 activity, effect in words ([2]; UMSCC47 (HPV-positive), 10 μM)
XELA*RALDQ-NH2 (ELXRALDQ; HBS: 4-pentenoic acid, N-allylalanine; C-terminal amide; CH1iB) [X 4-pentenoic acid, A* N-allylalanine] | did not modulate | 71 | potentiated | unchanged | 
XTAA*DCEYNAR (TAXDCEYNAR; HBS: 4-pentenoic acid, N-allylalanine; CH1iA) [X 4-pentenoic acid, A* N-allylalanine, reference compound] | did not modulate |  |  | unchanged | no effect
